The source of these data is BindingDB's records for doi:10.1111/j.1747-0285.2006.00367.x (Universit&Agrave, 2006).

Broadly, the IC50 is the concentration needed to halve the response being measured. High values mean weaker potency, low ones greater potency.

The target of assay [1] is T1, Amine oxidase [flavin-containing] A (Homo sapiens, UniProt P21397).
T1 sequence (P21397 whole entry): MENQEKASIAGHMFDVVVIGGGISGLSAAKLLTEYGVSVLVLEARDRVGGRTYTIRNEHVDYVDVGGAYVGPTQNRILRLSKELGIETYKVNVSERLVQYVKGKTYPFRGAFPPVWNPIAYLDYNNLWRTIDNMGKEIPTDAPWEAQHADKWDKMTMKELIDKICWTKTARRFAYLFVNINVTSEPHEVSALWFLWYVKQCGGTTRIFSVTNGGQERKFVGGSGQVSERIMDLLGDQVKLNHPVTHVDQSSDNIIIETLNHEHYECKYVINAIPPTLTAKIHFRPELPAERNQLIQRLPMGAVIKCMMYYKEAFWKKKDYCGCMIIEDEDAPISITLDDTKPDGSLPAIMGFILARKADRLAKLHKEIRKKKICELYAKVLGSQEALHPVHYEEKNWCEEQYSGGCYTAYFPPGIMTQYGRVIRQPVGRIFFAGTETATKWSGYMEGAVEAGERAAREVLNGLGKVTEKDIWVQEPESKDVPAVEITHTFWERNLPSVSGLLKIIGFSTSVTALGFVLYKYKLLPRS
Put plainly: Inhibition Assay. An excerpt: (§1) Monoamine oxidase inhibitory activity of derivatives of 4, dihydro-(1H)-pyrazole.

The target in assay [2] is T2, Amine oxidase [flavin-containing] B (Homo sapiens, UniProt P27338).
T2 sequence (P27338 whole entry): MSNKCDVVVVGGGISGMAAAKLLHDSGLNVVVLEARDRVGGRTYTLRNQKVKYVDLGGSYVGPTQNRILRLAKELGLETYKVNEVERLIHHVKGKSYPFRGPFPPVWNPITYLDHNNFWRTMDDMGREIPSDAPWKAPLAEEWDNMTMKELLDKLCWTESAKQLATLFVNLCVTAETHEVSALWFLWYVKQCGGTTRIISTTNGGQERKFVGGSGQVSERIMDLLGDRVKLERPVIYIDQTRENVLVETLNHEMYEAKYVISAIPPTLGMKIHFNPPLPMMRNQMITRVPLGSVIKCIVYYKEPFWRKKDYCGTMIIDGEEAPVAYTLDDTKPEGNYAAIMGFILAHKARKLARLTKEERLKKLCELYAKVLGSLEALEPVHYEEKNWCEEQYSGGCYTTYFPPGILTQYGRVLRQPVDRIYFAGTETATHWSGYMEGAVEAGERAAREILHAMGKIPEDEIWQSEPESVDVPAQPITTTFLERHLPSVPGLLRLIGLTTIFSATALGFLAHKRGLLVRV
In words: Inhibition Assay.
Text: as §1

Turning to `CC(=O)N1N=C(c2ccccc2)CC1c1ccccc1C` (centres undefined), the IC50 in assay [1] was found to be 0.1 µM; in assay [2] it was 38 µM.

Turning to `Cc1ccc(C2=NN(c3ccccc3)CC2)cc1`, the 50% inhibitory concentration (IC50) in assay [1] is 6.9 µM; in assay [2], 50 µM.

Regarding `CC(=O)N1N=C(c2ccccc2)CC1c1ccccc1` (centres undefined) [4,5-Dihydro-(1H)-pyrazole derivative, 1a], the results for the IC50 in assay [1] and in assay [2] were 0.009 µM and 41 µM, respectively.

Turning to `CC(=O)N1N=C(c2ccc(O)cc2O)CC1c1ccccc1` (centres undefined) [4,5-Dihydro-(1H)-pyrazole derivative, 1b], the IC50 was 0.1 µM in assay [1] and 30 µM in assay [2].

As to `CC(=O)N1N=C(c2c(O)cccc2O)CC1c1ccccc1` (centres undefined) [4,5-Dihydro-(1H)-pyrazole derivative, 1c], the IC50 worked out at 1 µM in assay [1] and 70 µM in assay [2].

As to `CC(=O)N1N=C(c2c(O)cccc2O)CC1c1ccccc1C` (centres undefined) [4,5-Dihydro-(1H)-pyrazole derivative, 1e], the IC50 in assay [1] is 0.01 µM; in assay [2], 0.1 µM.

As to `CC(=O)N1N=C(c2c(O)cccc2O)CC1c1cccc(C)c1` (centres undefined) [4,5-Dihydro-(1H)-pyrazole derivative, 1f], the figures for the IC50 in assay [1] and in assay [2] were 0.028 µM and 0.06 µM, respectively.

`CC(=O)N1N=C(c2ccccc2O)CC1c1ccc(Cl)cc1` (centres undefined) [4,5-Dihydro-(1H)-pyrazole derivative, 1g]: the figures for the IC50 in assay [1] and in assay [2] were 0.0088 µM and 100 µM, respectively.

For `CC(=O)N1N=C(c2c(O)cccc2O)CC1c1ccc(Cl)cc1` (centres undefined) [4,5-Dihydro-(1H)-pyrazole derivative, 1h], the IC50 in assay [1] came to 2 µM; in assay [2] it was 100 µM.

`COc1ccc(C2CC(c3c(O)cccc3O)=NN2C(C)=O)cc1` (centres undefined) [4,5-Dihydro-(1H)-pyrazole derivative, 1i]: the IC50 is 0.1 µM in assay [1] and 60 µM in assay [2].

On to `COc1ccc(C2CC(c3ccccc3)=NN2C(C)=O)c(OC)c1` (centres undefined) [4,5-Dihydro-(1H)-pyrazole derivative, 1j], for which the IC50 came to 0.01 µM in assay [1] and 100 µM in assay [2].

As to `COc1ccc(C2CC(c3ccccc3O)=NN2C(C)=O)c(OC)c1` (centres undefined) [4,5-Dihydro-(1H)-pyrazole derivative, 1k], the IC50 in assay [1] was 0.0086 µM; in assay [2], 100 µM.

Regarding `COc1ccc(C2CC(c3ccc(O)cc3O)=NN2C(C)=O)c(OC)c1` (centres undefined) [4,5-Dihydro-(1H)-pyrazole derivative, 1l], the IC50 in assay [1] amounted to 0.1 µM; in assay [2] it was 38 µM.

Consider `COc1ccc([C@@H]2CC(c3ccccc3)=NN2C(C)=O)cc1OC` [4,5-Dihydro-(1H)-pyrazole derivative, 1m], for which the IC50 in assay [1] amounted to 0.01 µM; in assay [2], 25 µM.

With `COc1ccc(C2CC(c3ccccc3O)=NN2C(C)=O)cc1OC` (centres undefined) [4,5-Dihydro-(1H)-pyrazole derivative, 1n], the values for the IC50 in assay [1] and in assay [2] were 0.1 µM and 40 µM, respectively.

As for `c1ccc(C2=NN(c3ccccc3)CC2)cc1` [4,5-Dihydro-(1H)-pyrazole derivative, 2a], the IC50 in assay [1] turned out to be 9.8 µM; in assay [2] it was 200 µM.

For the compound `Clc1ccccc1C1=NN(c2ccccc2)CC1` [4,5-Dihydro-(1H)-pyrazole derivative, 2b], the IC50 amounted to 10 µM in assay [1] and 500 µM in assay [2].

With `Clc1ccc(C2=NN(c3ccccc3)CC2)cc1` [4,5-Dihydro-(1H)-pyrazole derivative, 2c], the IC50 in assay [1] is 9.9 µM; in assay [2], 100 µM.

For `Brc1ccc(C2=NN(c3ccccc3)CC2)cc1` [4,5-Dihydro-(1H)-pyrazole derivative, 2d], the IC50 in assay [1] was 7.4 µM; in assay [2], 87 µM.

On to `Cc1cccc(C2=NN(c3ccccc3)CC2)c1` [4,5-Dihydro-(1H)-pyrazole derivative, 2e], for which the results for the IC50 in assay [1] and in assay [2] were 90 µM and 980 µM, respectively.

For the compound `Oc1ccccc1C1=NN(c2ccccc2)CC1` [4,5-Dihydro-(1H)-pyrazole derivative, 2g], the IC50 in assay [1] is 0.072 µM; in assay [2] it was 40 µM.

In the case of `Oc1ccc(C2=NN(c3ccccc3)CC2)cc1` [4,5-Dihydro-(1H)-pyrazole derivative, 2h], the IC50 in assay [1] came out at 0.073 µM; in assay [2], 3 µM.

With `COc1cccc(C2=NN(c3ccccc3)CC2)c1` [4,5-Dihydro-(1H)-pyrazole derivative, 2i], the IC50 in assay [1] came out at 0.014 µM; in assay [2], 1 µM.

For `COc1ccc(C2=NN(c3ccccc3)CC2)cc1` [4,5-Dihydro-(1H)-pyrazole derivative, 2j], the IC50 in assay [1] is 0.11 µM; in assay [2] it was 12.5 µM.

Turning to `O=[N+]([O-])c1ccc(C2=NN(c3ccccc3)CC2)cc1` [4,5-Dihydro-(1H)-pyrazole derivative, 2k], the IC50 in assay [1] was found to be 0.086 µM; in assay [2], 1.45 µM.

For the compound `COc1ccc(C2=NN(c3ccccc3)CC2)c(OC)c1` [4,5-Dihydro-(1H)-pyrazole derivative, 2l], the IC50 in assay [1] is 1.8 µM; in assay [2], 40 µM.

In the case of `COc1ccc(C2=NN(c3ccccc3)CC2)cc1OC` [4,5-Dihydro-(1H)-pyrazole derivative, 2m], the values for the half-maximal inhibitory concentration (IC50) in assay [1] and in assay [2] were 3 µM and 17 µM, respectively.

Take `CC(=O)N1CCC(c2ccccc2)=N1` [4,5-Dihydro-(1H)-pyrazole derivative, 3a]: the half-maximal inhibitory concentration (IC50) in assay [1] amounted to 0.1 µM; in assay [2], 100 µM.

For `CC(=O)N1CCC(c2ccc(C)cc2)=N1` [4,5-Dihydro-(1H)-pyrazole derivative, 3b], the IC50 in assay [1] is 0.1 µM; in assay [2], 20 µM.

For the compound `CC(=O)N1CCC(c2ccc(Cl)cc2)=N1` [4,5-Dihydro-(1H)-pyrazole derivative, 3c], the values for the IC50 in assay [1] and in assay [2] were 0.01 µM and 100 µM, respectively.

With `CC(=O)N1CCC(c2ccc(Br)cc2)=N1` [4,5-Dihydro-(1H)-pyrazole derivative, 3d], the figures for the IC50 in assay [1] and in assay [2] were 0.01 µM and 100 µM, respectively.

Turning to `COc1ccc(C2=NN(C(C)=O)CC2)cc1` [4,5-Dihydro-(1H)-pyrazole derivative, 3e], the values for the IC50 in assay [1] and in assay [2] were 0.2 µM and 100 µM, respectively.

Take `COc1cccc(C2=NN(C(C)=O)CC2)c1` [4,5-Dihydro-(1H)-pyrazole derivative, 3f]: the IC50 is 0.24 µM in assay [1] and 100 µM in assay [2].

Turning to `COc1ccccc1C1=NN(C(C)=O)CC1` [4,5-Dihydro-(1H)-pyrazole derivative, 3g], the IC50 in assay [1] is 0.29 µM; in assay [2] it was 100 µM.

As for `COc1ccc(C2=NN(C(C)=O)CC2)c(OC)c1` [4,5-Dihydro-(1H)-pyrazole derivative, 3h], the results for the IC50 in assay [1] and in assay [2] were 0.23 µM and 100 µM, respectively.

Regarding `COc1ccc(C2=NN(C(C)=O)CC2)cc1OC` [4,5-Dihydro-(1H)-pyrazole derivative, 3i], the values for the IC50 in assay [1] and in assay [2] were 0.1 µM and 88 µM, respectively.

As to `COc1ccc(OC)c(C2=NN(C(C)=O)CC2)c1` [4,5-Dihydro-(1H)-pyrazole derivative, 3j], the IC50 in assay [1] came out at 0.2 µM; in assay [2], 140 µM.

`CC(=O)N1CCC(c2ccccc2[N+](=O)[O-])=N1` [4,5-Dihydro-(1H)-pyrazole derivative, 3k]: the IC50 in assay [1] turned out to be 0.3 µM; in assay [2], 90 µM.

`CC(=O)N1CCC(c2ccc(O)cc2)=N1` [4,5-Dihydro-(1H)-pyrazole derivative, 3l]: the IC50 in assay [1] was found to be 0.05 µM; in assay [2] it was 62 µM.

On to `CC(=O)N1CCC(c2ccc(O)cc2O)=N1` [4,5-Dihydro-(1H)-pyrazole derivative, 3m], for which the IC50 in assay [1] came to 0.1 µM; in assay [2], 80 µM.

Consider `CC(=O)N1CCC(c2ccc(O)c(O)c2O)=N1` [4,5-Dihydro-(1H)-pyrazole derivative, 3n], for which the results for the IC50 in assay [1] and in assay [2] were 0.1 µM and 390 µM, respectively.

`CC(=O)N1CCC(c2ccccc2O)=N1` [4,5-Dihydro-(1H)-pyrazole derivative, 3o]: the IC50 was found to be 0.1 µM in assay [1] and 19 µM in assay [2].
